Test results from paper PMC6704710, “Preclinical evaluation of 3D185, a novel potent inhibitor of FGFR1/2/3 and CSF-1R, in FGFR-dependent and macrophage-dominant cancer models” (Journal of Experimental & Clinical Cancer Research : CR, 2019).

Columns and labels:
Assay type in all cases: biochemical
ULK3(h) = target: T1, ULK3(h) (Homo sapiens, UniProt Q6PHR2); assay: Eurofins kinase panel; details: read-out: Inhibition rate (%)
T1 construct: purchased Eurofins (KinaseProfiler)
T1 sequence (Q6PHR2 1-472): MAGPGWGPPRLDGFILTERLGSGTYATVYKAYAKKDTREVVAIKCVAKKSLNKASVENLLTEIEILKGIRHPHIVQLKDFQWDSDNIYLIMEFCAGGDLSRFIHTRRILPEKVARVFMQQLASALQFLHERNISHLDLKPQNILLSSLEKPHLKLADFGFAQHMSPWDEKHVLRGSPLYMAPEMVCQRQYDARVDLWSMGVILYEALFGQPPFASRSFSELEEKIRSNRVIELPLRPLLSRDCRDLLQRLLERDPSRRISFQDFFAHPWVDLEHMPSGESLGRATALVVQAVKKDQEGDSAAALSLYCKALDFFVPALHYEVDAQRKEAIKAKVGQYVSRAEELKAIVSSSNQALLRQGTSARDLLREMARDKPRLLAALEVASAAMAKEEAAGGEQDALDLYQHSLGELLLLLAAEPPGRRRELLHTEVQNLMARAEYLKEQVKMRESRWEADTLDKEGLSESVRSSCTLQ

PAK1(h) = target: T2, PAK1(h) (Homo sapiens, UniProt Q13153); assay: Eurofins kinase panel; details: read-out: Inhibition rate (%)
T2 construct: purchased Eurofins (KinaseProfiler)

ICK(h) = target: T3, ICK(h) (Homo sapiens, UniProt Q9UPZ9); assay: Eurofins kinase panel; details: read-out: Inhibition rate (%)
T3 construct: purchased Eurofins (KinaseProfiler)
T3 sequence (Q9UPZ9 1-632): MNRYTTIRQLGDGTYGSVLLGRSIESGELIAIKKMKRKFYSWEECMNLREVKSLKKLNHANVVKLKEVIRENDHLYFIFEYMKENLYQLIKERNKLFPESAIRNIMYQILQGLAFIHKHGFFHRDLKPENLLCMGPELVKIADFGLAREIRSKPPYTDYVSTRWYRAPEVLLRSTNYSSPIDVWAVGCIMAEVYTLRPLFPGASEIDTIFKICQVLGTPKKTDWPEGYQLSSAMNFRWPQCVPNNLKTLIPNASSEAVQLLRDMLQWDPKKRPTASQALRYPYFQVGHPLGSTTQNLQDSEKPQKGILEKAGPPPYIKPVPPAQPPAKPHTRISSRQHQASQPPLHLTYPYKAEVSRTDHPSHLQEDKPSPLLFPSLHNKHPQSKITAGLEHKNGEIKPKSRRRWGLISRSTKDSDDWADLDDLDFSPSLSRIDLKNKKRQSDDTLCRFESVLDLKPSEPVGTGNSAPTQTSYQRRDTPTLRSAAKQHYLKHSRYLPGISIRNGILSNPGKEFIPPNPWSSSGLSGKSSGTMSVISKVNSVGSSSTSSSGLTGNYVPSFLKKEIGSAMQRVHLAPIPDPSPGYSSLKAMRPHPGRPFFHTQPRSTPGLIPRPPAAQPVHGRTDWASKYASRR

BTK(R28H)(h) = target: T4, BTK(R28H)(h) (Homo sapiens, UniProt Q06187, R28H); assay: Eurofins kinase panel; details: read-out: Inhibition rate (%)
T4 construct: purchased Eurofins (KinaseProfiler)

IKKε(h) = target: T5, IKKε(h) (Homo sapiens, UniProt Q14164); assay: Eurofins kinase panel; details: read-out: Inhibition rate (%)
T5 construct: purchased Eurofins (KinaseProfiler)
T5 sequence (Q14164 1-716): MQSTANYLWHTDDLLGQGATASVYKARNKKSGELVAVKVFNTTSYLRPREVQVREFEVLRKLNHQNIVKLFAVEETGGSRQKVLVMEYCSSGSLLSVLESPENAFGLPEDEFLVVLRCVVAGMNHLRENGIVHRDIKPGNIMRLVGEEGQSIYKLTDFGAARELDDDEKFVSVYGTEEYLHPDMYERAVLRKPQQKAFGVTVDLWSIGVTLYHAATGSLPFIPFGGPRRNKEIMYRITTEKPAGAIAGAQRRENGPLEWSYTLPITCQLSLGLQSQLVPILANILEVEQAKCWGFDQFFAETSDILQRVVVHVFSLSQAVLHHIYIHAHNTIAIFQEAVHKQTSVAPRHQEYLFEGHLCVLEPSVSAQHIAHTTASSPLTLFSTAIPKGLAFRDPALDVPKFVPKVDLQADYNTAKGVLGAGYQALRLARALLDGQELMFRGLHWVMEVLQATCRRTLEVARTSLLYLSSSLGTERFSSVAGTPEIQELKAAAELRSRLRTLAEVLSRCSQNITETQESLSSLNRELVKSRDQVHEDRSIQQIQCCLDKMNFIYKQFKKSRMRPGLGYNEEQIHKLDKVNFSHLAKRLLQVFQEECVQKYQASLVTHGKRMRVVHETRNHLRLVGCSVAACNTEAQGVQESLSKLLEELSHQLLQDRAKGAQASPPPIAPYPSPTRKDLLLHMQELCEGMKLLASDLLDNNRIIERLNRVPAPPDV

VEGFR3 = target: T6, VEGFR3 (Homo sapiens, UniProt P35916); assay: Kinase inhibition assay (ELISA)
T6 construct: purchased Eurofins (Fremont, United States)
Protocol: (§1) Active FGFR1–4, VEGFR1, KDR, VEGFR3, PDGFRα and PDGFRβ proteins were purchased from Eurofins (Fremont, United States), and kinase activity was assessed using ELISA, as previously reported. […]. Increasing concentrations of ATP were diluted for the kinase reaction in the ATP competition assay. CSF-1R kinase activity was analyzed using the Z’-LYTE™ Kinase Assay Kit (Thermo Fisher, United States). The assay formats are described in the SelectScreen Kinase Profiling Service Zlyte protocol. IC50 values were calculated by dose-response curve fitting using Prism (Graph Pad).

FGFR1 = target: T7, FGFR1 (Homo sapiens, UniProt P11362); assay: Kinase inhibition assay (ELISA)
T7 construct: purchased Eurofins (Fremont, United States)
Protocol: as §1

VEGFR1 = target: T8, VEGFR1 (Homo sapiens, UniProt P17948); assay: Kinase inhibition assay (ELISA)
T8 construct: purchased Eurofins (Fremont, United States)
Protocol: as §1

PDGFRβ = target: T9, PDGFRβ (Homo sapiens, UniProt P09619); assay: Kinase inhibition assay (ELISA)
T9 construct: purchased Eurofins (Fremont, United States)
Protocol: as §1

PDGFRα = target: T10, PDGFRα (Homo sapiens, UniProt P16234); assay: Kinase inhibition assay (ELISA)
T10 construct: purchased Eurofins (Fremont, United States)
Protocol: as §1

ErbB4(h) = target: T11, ErbB4(h) (Homo sapiens, UniProt Q15303); assay: Eurofins kinase panel; details: read-out: Inhibition rate (%)
T11 construct: purchased Eurofins (KinaseProfiler)

MSK1(h) = target: T12, MSK1(h) (Homo sapiens, UniProt O75582); assay: Eurofins kinase panel; details: read-out: Inhibition rate (%)
T12 construct: purchased Eurofins (KinaseProfiler)
T12 sequence (O75582 whole entry): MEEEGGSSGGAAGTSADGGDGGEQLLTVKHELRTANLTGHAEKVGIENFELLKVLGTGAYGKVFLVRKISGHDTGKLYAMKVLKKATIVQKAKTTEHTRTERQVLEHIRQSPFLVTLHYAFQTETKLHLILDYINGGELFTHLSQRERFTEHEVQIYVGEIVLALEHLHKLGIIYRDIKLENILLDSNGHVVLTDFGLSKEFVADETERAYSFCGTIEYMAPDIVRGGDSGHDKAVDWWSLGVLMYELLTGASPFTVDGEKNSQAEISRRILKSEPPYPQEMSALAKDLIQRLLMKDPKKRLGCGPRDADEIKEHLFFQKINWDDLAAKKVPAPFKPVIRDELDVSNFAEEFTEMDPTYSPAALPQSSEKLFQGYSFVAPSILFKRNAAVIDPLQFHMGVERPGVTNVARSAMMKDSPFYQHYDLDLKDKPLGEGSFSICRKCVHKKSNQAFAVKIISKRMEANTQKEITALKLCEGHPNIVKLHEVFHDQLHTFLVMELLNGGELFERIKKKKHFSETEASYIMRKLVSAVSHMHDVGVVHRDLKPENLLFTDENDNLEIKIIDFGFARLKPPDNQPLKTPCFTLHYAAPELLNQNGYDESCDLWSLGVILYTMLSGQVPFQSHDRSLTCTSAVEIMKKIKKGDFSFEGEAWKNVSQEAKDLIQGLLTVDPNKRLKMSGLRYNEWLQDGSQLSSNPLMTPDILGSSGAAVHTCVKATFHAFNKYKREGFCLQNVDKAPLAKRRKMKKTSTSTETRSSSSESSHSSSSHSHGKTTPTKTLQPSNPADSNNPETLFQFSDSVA

T11 sequence (Q15303 26-1308): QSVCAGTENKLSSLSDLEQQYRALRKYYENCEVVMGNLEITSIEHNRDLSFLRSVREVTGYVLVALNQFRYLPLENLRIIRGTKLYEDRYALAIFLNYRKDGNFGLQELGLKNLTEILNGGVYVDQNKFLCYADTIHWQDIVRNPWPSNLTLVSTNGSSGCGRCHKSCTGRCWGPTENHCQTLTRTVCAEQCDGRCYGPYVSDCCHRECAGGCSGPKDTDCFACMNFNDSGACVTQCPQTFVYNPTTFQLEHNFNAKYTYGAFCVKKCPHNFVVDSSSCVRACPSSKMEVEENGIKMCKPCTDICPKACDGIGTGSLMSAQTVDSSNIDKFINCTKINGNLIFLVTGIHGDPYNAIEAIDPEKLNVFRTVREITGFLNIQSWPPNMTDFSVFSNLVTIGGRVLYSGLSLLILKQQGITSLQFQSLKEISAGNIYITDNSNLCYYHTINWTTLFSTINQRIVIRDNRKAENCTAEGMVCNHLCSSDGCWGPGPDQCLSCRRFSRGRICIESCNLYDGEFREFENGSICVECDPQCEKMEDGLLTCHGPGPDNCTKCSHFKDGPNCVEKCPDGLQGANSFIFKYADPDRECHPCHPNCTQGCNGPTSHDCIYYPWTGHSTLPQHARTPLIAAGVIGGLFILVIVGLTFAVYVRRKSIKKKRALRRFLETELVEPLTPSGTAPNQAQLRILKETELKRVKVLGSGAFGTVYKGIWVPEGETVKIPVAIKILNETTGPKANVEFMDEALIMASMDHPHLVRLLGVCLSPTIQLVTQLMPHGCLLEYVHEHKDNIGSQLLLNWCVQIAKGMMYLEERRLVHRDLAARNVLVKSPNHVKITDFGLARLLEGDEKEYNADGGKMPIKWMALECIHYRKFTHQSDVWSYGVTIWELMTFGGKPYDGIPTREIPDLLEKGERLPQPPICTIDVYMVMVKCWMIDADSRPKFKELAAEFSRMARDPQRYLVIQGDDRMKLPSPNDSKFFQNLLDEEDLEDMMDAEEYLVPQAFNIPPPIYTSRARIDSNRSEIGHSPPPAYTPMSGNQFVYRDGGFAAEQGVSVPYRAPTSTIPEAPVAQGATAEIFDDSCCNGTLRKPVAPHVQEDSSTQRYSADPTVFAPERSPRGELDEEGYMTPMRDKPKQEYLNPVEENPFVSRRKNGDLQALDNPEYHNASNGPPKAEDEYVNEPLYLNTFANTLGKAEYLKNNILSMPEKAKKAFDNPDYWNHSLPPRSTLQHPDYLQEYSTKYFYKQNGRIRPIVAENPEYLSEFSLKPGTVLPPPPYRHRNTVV
T7 sequence (P11362 22-822): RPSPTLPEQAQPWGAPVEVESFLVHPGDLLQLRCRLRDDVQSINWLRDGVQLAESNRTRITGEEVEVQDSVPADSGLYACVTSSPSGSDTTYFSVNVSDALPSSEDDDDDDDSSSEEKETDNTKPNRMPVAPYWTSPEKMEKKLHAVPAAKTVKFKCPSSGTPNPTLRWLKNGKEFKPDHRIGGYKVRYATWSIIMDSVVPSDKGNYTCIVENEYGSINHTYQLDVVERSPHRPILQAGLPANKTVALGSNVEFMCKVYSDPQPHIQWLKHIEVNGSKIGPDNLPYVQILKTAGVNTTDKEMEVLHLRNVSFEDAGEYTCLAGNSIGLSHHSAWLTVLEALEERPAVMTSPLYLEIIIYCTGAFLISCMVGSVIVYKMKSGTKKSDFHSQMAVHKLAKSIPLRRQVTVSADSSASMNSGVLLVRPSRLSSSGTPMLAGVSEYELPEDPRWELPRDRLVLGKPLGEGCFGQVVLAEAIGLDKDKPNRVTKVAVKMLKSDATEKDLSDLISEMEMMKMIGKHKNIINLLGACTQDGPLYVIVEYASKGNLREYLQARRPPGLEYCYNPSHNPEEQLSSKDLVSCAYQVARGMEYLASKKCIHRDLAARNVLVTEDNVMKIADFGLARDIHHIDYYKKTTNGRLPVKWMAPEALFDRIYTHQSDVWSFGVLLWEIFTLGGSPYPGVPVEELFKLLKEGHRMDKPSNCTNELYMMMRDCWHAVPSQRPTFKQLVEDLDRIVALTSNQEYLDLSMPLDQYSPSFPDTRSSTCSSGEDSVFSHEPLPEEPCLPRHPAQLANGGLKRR
T2 sequence (Q13153 whole entry): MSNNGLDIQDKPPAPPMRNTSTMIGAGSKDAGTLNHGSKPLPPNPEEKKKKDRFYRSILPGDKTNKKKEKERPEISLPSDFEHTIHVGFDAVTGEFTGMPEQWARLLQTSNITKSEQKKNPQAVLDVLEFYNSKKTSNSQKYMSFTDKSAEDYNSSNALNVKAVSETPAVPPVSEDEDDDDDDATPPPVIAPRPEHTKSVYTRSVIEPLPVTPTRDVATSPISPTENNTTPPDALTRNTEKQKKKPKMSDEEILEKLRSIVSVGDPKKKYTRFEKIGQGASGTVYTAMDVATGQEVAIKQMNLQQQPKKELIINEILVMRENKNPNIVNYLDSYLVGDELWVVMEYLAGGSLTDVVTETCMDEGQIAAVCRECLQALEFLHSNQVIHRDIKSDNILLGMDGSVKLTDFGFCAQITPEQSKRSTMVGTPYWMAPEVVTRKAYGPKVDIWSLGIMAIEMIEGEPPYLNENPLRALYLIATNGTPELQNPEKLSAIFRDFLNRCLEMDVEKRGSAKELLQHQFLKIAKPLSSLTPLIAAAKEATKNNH
T4 sequence (Q06187 whole entry R28H): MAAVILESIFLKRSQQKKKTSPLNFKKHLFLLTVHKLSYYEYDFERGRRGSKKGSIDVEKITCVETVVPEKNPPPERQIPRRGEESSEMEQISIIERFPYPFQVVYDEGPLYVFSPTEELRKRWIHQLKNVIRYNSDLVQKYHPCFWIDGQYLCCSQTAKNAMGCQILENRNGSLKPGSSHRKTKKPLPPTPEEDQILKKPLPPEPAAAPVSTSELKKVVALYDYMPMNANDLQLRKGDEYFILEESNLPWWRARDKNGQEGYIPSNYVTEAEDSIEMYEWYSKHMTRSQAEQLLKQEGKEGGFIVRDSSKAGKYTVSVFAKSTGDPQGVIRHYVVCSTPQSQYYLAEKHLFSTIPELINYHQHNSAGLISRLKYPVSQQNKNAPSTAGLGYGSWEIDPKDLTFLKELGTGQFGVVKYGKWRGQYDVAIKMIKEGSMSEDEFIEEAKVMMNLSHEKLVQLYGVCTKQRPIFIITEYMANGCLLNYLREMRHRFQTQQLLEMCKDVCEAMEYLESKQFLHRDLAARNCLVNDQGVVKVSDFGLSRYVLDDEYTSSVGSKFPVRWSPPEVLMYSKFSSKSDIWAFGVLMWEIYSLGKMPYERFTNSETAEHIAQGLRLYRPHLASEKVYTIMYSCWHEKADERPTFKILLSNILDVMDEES

COc1cc(OC)c(Cl)c(-c2ccc3c(NC(=O)c4ccc(N5CCNC(C)(C)C5)cc4)n[nH]c3n2)c1Cl [3D185]
inhibition at 0.01 µM (ULK3(h); 10 nM): -8%
inhibition at 0.1 µM (ULK3(h); 100 nM): 2%
inhibition at 1 µM (ULK3(h); 1000 nM): -1%
inhibition at 0.01 µM (PAK1(h); 10 nM): 5%
inhibition at 0.1 µM (PAK1(h); 100 nM): 6%
inhibition at 1 µM (PAK1(h); 1000 nM): 2%
inhibition at 0.01 µM (ICK(h); 10 nM): -10%
inhibition at 0.1 µM (ICK(h); 100 nM): -5%
inhibition at 1 µM (ICK(h); 1000 nM): 4%
inhibition at 0.01 µM (BTK(R28H)(h); 10 nM): -3%
inhibition at 0.1 µM (BTK(R28H)(h); 100 nM): -2%
inhibition at 1 µM (BTK(R28H)(h); 1000 nM): -4%
inhibition at 0.01 µM (IKKε(h); 10 nM): -4%
inhibition at 0.1 µM (IKKε(h); 100 nM): 2%
inhibition at 1 µM (IKKε(h); 1000 nM): 5%
IC50 (VEGFR3): > 1 µM
mode of inhibition (FGFR1; ATP competition assay): ATP-competitive inhibitor
selectivity for FGFR over PDGFRα, PDGFRβ, VEGFR1 and VEGFR3 (FGFR1; kinase assays): > 2000 fold
IC50 (FGFR1; mean ± SD): 0.0005 µM
IC50 (VEGFR1): > 1 µM
IC50 (PDGFRβ): > 1 µM
IC50 (PDGFRα): > 1 µM
inhibition at 0.01 µM (ErbB4(h); 10 nM): -2%
inhibition at 0.1 µM (ErbB4(h); 100 nM): -1%
inhibition at 1 µM (ErbB4(h); 1000 nM): 28%
inhibition at 0.01 µM (MSK1(h); 10 nM): 31%
inhibition at 0.1 µM (MSK1(h); 100 nM): 19%
inhibition at 1 µM (MSK1(h); 1000 nM): 24%
